Assay results: patent US20230312587A1, “PTERIDINONE COMPOUNDS AND USES THEREOF” (Vertex Pharmaceutical Incorporated, priority 2018, published 2023)
Where two headings read alike, the source gives them in different places.

Tests used:
Format in all cases: cell-based
HepG2 parental = test: In vitro cell viability (CellTiter-Glo), HepG2 parental; conditions: 96 hours
Protocol: (§1) HEK293 cells containing empty pCLPCx vector (HEK293 empty), HEK293 cells stably over-expression WFS1 (HEK293 WFS1), HepG2, and HepG2 cells where WFS1 was depleted via CRISPR/Cas9 (HepG2 WFS1 KO) cells were plated into 96-well black plates (Corning, product #3904) in 100 microliters of complete DMEM cell culture media [DMEM (Life Technologies, product #11960-051) media supplemented with 10% FBS (Hyclone, catalog #SH30071.03), antimycotic/antibiotic (Life Technologies, product #15240-062), and Glutamax (Life Technologies, product #35050-061)] at 1,000 (HEK293) or 5,000 (HepG2) cells per well. Cells were allowed to attach and grow overnight, after which compounds are added at various concentrations. Cell viability was assessed 96 hrs after compound addition with CellTiter-Glo reagent (Promega, catalog #G7570) according to manufacturer's protocol and measurement on a Pherastar luminescence plate reader (BMG Labtech).
To determine the effect of WFS1 depletion on compound mediated inhibition of cell viability, parental HepG2 cells and HepG2 cells where WFS1 was deleted by CRISPR/Cas9 were exposed to increasing concentrations of either Compound 136 or Compound 253 for 96 hours after which time viability was determined using Cell Titer Glo reagent (Promega). […] The IC50s for the viability of both the HepG2 parental and WFS1 knockout cells are summarized in Table 47: A<0.5 μM; 0.5 μM≤<2.0 μM; 2.0 μM≤C<10.0 μM; D≥[…].

Hek293 empty vector = test: In vitro cell viability (CellTiter-Glo), Hek293 empty vector
Protocol: HEK293 (ATCC, catalog #CRL-1573) cells are plated in 10 cm dishes (Corning, product #430167) into 10 mL of complete DMEM cell culture media [DMEM (Life Technologies, product #11960-051) media supplemented with 10% FBS (Hyclone, catalog #SH30071.03), antimycotic/antibiotic (Life Technologies, product #15240-062), and Glutamax (Life Technologies, product #35050-061)] at 3×10^6 cells per dish. Cells are allowed to attach and grow overnight at 37° C. in humidified 5% CO2. Cells are co-transfected with pVSV-G, pCMV-Gag/Pol and pCLPCX_WFS1 using Fugene 6 (Promega, catalog #E2691) according to manufacturer's protocol. Separately, cells are co-transfected with pVSV-G, pCMV-Gag/Pol and pCLPCX to produce control retrovirus. Cell culture media containing retrovirus (viral supernatant) is collected at 48 and 72 hours following transfection, filtered through a 0.4 uM filter, and stored at −80° C.
HEK293 cells are plated in 6 well plates (Corning, product #3516) in 2 mL of complete DMEM cell culture media at 1×10^5 cells well and allowed to attach and grow overnight at 37° C. in humidified 5% CO2. The following day, the media is replaced with viral supernatant to which 10 ug/ml of Polybrene® (Santa Cruz Biotech, catalog #sc-134220) is added. Viral supernatant is replaced 24 hours later with complete DMEM media. Transduced cells are selected in complete DMEM cell culture media containing 1 microgram/mL of puromycin (Life Technologies, catalog #A1113803).
as §1
The IC50s for the viability of both the Hek293 empty vector and WFS1 over-expressing cells are summarized in Table 47: A<0.06 μM; 0.06 μM≤B<0.6 μM; 0.6 μM≤C<3.0 μM; D≥3.0 μM.

HepG2 XBP1(u)-Luc cells = test: HepG2 XBP1 reporter assay; conditions: 6 h
Outline: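 Reporter cells are HepG2 stably carrying unspliced XBP1 fused to firefly luciferase, which becomes in-frame after IRE1alpha-mediated splicing. SteadyGlo luminescence was normalized to DMSO-treated cells for IC50 calculation.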

[1] = Homo sapiens, read-out: HepG2 viability
[2] = Homo sapiens, HEK293, read-out: Hek293 empty vector viability
[3] = Hek293 empty vector, read-out: Hek293 empty vector viability

Molecule | IC50 (HepG2 XBP1(u)-Luc cells; Homo sapiens) [nM] | IC50 (HepG2 parental; [1]) [nM] | IC50 (Hek293 empty vector; [2]) [nM] | further results
Cc1nc(N[C@@H]2CC[C@@H](Oc3cc(F)c(F)c(F)c3)C2)nc2c1N(C)C(=O)[C@H](C)N2C [Compound 272, (S)-4,5,7,8-tetramethyl-2-(((1R,3R)-3-(3,4,5-trifluorophenoxy)cyclopentyl)amino)-7,8-dihydropteridin-6(5H)-one] |  | < 500 | ≥ 3000 | 
Cc1nc(NCc2cnn(Cc3ccc(F)cc3)c2)nc2c1N(C)C(=O)[C@H](C)N2C [Compound 1, (7S)-2-(((1-(4-fluorobenzyl)-1H-pyrazol-4-yl)methyl)amino)-4,5,7,8-tetramethyl-7,8-dihydropteridin-6(5H)-one] |  | < 500 | ≥ 3000 | 
CCOc1ccc(CCn2cc(CNc3ncc4c(n3)N(C)[C@@H](C)C(=O)N4)cn2)cc1 [Compound 121, (7S)-2-(((1-(4-ethoxyphenethyl)-1H-pyrazol-4-yl)methyl)amino)-7,8-dimethyl-7,8-dihydropteridin-6(5H)-one] | 2000 to 10000 | ≥ 10000 | ≥ 3000 | 
Cc1nc(NCc2cnn(Cc3ccc(F)nc3)c2)nc2c1NC(=O)[C@H](C1CC1)N2C [Compound 421, (7S)-7-cyclopropyl-2-(((1-((6-fluoropyridin-3-yl)methyl)-1H-pyrazol-4-yl)methyl)amino)-4,8-dimethyl-7,8-dihydropteridin-6(511)-one] |  |  |  | IC50 (HepG2 XBP1(u)-Luc cells): < 600 nM; IC50 (HepG2 parental; read-out: HepG2 viability): 500 to 2000 nM; IC50 (Hek293 empty vector; [3]): ≥ 3000 nM
Cc1nc(N[C@H]2C[C@H](COc3cc(F)c(F)c(F)c3)C2)nc2c1NC(=O)[C@H](C)N2C [Compound 258, (7S)-4,7,8-trimethyl-2-((trans-3-((3,4,5-trifluorophenoxy)methyl)-cyclobutyl)amino)-7,8-dihydropteridin-6(5H)-one] |  | 2000 to 10000 | ≥ 3000 | 
(7S)-4,7,8-trimethyl-2-((trans-3-(3,4-difluorophenoxy)cyclobutyl)amino)-7,8-dihydropteridin-6(5H)-one [Compound 251] |  |  |  | IC50 (HepG2 parental; read-out: HepG2 viability): ≥ 10000 nM; IC50 (Hek293 empty vector; [3]): ≥ 3000 nM
Cc1nc(N[C@H]2C[C@H](Oc3cc(F)c(F)c(F)c3)C2)nc2c1N(C)C(=O)[C@H](C)N2C [Compound 253, (7S)-4,5,7,8-tetramethyl-2-((trans-3-(3,4,5-trifluorophenoxy)cyclobutyl)amino)-7,8-dihydropteridin-6(5H)-one] |  | 500 to 2000 | ≥ 3000 | IC50 (HepG2 parental; Homo sapiens, cell viability, Cell Titer Glo, read-out: IC50): 640 nM; IC50 (HepG2 parental; Homo sapiens, cell viability, read-out: IC50 class): 500 to 2000 nM; IC50 (Hek293 empty vector; Homo sapiens, cell viability, Hek293 empty vector, read-out: IC50): 15000 nM; IC50 (Hek293 empty vector; Homo sapiens, cell viability, Hek293 empty vector, read-out: IC50 class): ≥ 3000 nM
Cc1nc(NCc2cnn(Cc3ccc(F)cc3)c2)nc2c1NC(=O)[C@H](C)N2C [Compound 4, (7S)-2-(((1-(4-fluorobenzyl)-1H-pyrazol-4-yl)methyl)amino)-4,7,8-trimethyl-7,8-dihydropteridin-6(5H)-one] |  | 2000 to 10000 | ≥ 3000 | 
Cc1nc(N[C@H]2C[C@@H](COc3cc(F)c(F)c(F)c3)C2)nc2c1NC(=O)[C@H](C)N2C [Compound 257, (7S)-4,7,8-Trimethyl-2-((cis-3-((3,4,5-trifluorophenoxy)methyl)cyclobutyl)-amino)-7,8-dihydropteridin-6(5H)-one] |  | 2000 to 10000 | ≥ 3000 | 
Cc1nc(NCc2cnn([C@@H](C)c3ccc(C(F)(F)F)nc3)c2)nc2c1NC(=O)[C@H](C)N2C [Compound 174, (7S)-4,7,8-Trimethyl-2-(((1-((S)-1-(6-(trifluoromethyl)pyridin-3-yl)ethyl)-1H-pyrazol-4-yl)methyl)amino)-7,8-dihydropteridin-6(5H)-one] | 600 to 2000 |  | ≥ 3000 | 

More lines, main results first:

IC50 (HepG2 XBP1(u)-Luc cells; Homo sapiens) [nM] | Molecule | IC50 (HepG2 parental; [1]) [nM] | IC50 (Hek293 empty vector; [2]) [nM] | further results
< 600 | Cc1nc(NCc2cnn([C@@H]3CCN(c4ccc(F)cc4)C3)c2)nc2c1NC(=O)[C@H](C)N2C [Compound 170, (7S)-2-(((1-((R)-1-(4-fluorophenyl)pyrrolidin-3-yl)-1H-pyrazol-4-yl)methyl)amino)-4,7,8-trimethyl-7,8-dihydropteridin-6(5H)-one] | < 500 | ≥ 3000 | 
< 600 | Cc1nc(NCc2cnn(C[C@H](C)c3ccc(F)cc3)c2)nc2c1NC(=O)[C@H](C)N2C [Compound 96, (7S)-2-(((1-((R)-2-(4-fluorophenyl)propyl)-1H-pyrazol-4-yl)methyl)amino)-4,7,8-trimethyl-7,8-dihydropteridin-6(5H)-one] | 2000 to 10000 | ≥ 3000 | 
< 600 | Cc1nc(NCc2cnn(Cc3ccc(C(F)(F)F)nc3C(C)(C)O)c2)nc2c1NC(=O)[C@H](C)N2C [Compound 416, (7S)-2-(((1-((2-(2-hydroxypropan-2-yl)-6-(trifluoromethyl)pyridin-3-yl)methyl)-1H-pyrazol-4-yl)methyl)amino)-4,7,8-trimethyl-7,8-dihydropteridin-6(5H)-one] | < 500 | ≥ 3000 | 
< 600 | Cc1nc(NCc2cnn(Cc3cnc(Cl)c(F)c3)c2)nc2c1NC(=O)[C@H](C(C)C)N2C [Compound 424, (7S)-2-(((1-((6-chloro-5-fluoropyridin-3-yl)methyl)-1H-pyrazol-4-yl)methyl)amino)-7-isopropyl-4,8-dimethyl-7,8-dihydropteridin-6(5H)-one] | < 500 | ≥ 3000 | 
≥ 10000 | Cc1nc(NCc2cn(Cc3ccc(C(F)(F)F)nc3)cn2)nc2c1NC(=O)[C@H](C)N2C [Compound 428, (S)-4,7,8-trimethyl-2-(((1-((6-(trifluoromethyl)pyridin-3-yl)methyl)-1H-imidazol-4-yl)methyl)amino)-7,8-dihydropteridin-6(5H)-one] | ≥ 10000 | ≥ 3000 | 
< 600 | Cc1nc(N[C@H]2C[C@H](Oc3ccc(C(F)(F)F)nc3)C2)nc2c1NC(=O)[C@H](C)N2C [Compound 324, (7S)-4,7,8-trimethyl-2-((trans-3-((6-(trifluoromethyl)pyridin-3-yl)oxy)cyclobutyl)amino)-7,8-dihydropteridin-6(5H)-one] |  | ≥ 3000 | 
600 to 2000 | CCN1c2nc(NCc3cnn(Cc4ccc(C(F)(F)F)nc4)c3)nc(C)c2NC(=O)[C@@H]1C [Compound 395, (7S)-8-Ethyl-4,7-dimethyl-2-(((1-((6-(trifluoromethyl)pyridin-3-yl)methyl)-1H-pyrazol-4-yl)methyl)amino)-7,8-dihydropteridin-6(5H)-one] |  | ≥ 3000 | 
< 600 | Cc1nc(NCc2cnn(Cc3ccc(C(F)(F)F)nc3C(C)C)c2)nc2c1NC(=O)[C@H](C)N2C [Compound 388, (7S)-2-(((1-((2-isopropyl-6-(trifluoromethyl)pyridin-3-yl)methyl)-1H-pyrazol-4-yl)methyl)amino)-4,7,8-trimethyl-7,8-dihydropteridin-6(5H)-one] |  | ≥ 3000 | 
< 600 | Cc1nc(NCc2cnn(Cc3cc(C(F)(F)F)nn3C)c2)nc2c1NC(=O)[C@H](C1CC1)N2C [Compound 396, (7S)-7-Cyclopropyl-4,8-dimethyl-2-(((1-((1-methyl-3-(trifluoromethyl)-1H-pyrazol-5-yl)methyl)-1H-pyrazol-4-yl)methyl)amino)-7,8-dihydropteridin-6(5H)-one] |  | ≥ 3000 | 
< 600 | Cc1nc(NCc2cnn(Cc3ccc(C(F)(F)F)nc3)c2)nc2c1NC(=O)[C@H](C)N2C(C)C [Compound 385, (7S)-8-isopropyl-4,7-dimethyl-2-(((1-((6-(trifluoromethyl)pyridin-3-yl)methyl)-1H-pyrazol-4-yl)methyl)amino)-7,8-dihydropteridin-6(5H)-one] |  | ≥ 3000 | 
